According to ChEMBL document CHEMBL1240323, “3D QSAR studies on a series of potent and high selective inhibitors for three kinases of RTK family” (J Mol Graph Model, 2007):

Biological target: Vascular endothelial growth factor receptor 2 (Homo sapiens, UniProt P35968)
Assay: Inhibition of KDR

Chain of Vascular endothelial growth factor receptor 2 (P35968 whole entry): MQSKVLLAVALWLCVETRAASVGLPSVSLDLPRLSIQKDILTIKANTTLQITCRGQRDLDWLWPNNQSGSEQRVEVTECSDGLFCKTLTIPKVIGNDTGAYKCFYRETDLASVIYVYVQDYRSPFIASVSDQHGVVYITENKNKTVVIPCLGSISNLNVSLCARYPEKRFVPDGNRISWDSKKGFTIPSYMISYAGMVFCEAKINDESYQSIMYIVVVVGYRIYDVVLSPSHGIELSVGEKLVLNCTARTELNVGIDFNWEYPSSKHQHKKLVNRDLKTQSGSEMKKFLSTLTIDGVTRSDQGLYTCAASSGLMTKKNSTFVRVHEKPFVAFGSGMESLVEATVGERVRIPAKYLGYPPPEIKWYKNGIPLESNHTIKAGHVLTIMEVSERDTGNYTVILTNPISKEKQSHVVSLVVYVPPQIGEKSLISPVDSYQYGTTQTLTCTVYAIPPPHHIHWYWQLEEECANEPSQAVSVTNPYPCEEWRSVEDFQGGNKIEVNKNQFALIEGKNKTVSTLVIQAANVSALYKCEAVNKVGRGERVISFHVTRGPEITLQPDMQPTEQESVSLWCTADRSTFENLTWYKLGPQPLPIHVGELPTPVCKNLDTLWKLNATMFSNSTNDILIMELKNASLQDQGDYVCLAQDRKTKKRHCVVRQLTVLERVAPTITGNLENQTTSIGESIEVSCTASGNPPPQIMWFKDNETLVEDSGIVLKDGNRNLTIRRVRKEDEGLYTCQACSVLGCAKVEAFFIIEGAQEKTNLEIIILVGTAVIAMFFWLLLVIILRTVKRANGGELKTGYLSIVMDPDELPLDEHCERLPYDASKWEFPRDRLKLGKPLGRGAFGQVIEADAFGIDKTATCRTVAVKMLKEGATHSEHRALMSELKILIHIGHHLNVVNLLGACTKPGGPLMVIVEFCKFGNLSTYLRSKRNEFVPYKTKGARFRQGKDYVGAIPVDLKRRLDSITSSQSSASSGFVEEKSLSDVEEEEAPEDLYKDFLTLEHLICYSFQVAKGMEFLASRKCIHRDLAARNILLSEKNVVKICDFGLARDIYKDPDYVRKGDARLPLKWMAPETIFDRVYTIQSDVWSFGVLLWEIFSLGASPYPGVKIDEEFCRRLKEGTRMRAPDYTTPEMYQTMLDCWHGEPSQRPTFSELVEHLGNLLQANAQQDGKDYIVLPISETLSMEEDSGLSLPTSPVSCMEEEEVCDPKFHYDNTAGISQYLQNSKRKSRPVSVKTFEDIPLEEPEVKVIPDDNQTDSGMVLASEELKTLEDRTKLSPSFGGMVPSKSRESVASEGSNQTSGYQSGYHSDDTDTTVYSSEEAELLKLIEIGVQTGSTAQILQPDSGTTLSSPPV

`Cc1sc2ncnc(N)c2c1-c1ccc(NC(=O)Nc2cc(C(F)(F)F)ccc2F)cc1` gave an IC50 of 45.7 nM.
